Test results taken from publication PMC11249953, “c-KIT inhibitors reduce pathology and improve behavior in the Tg(SwDI) model of Alzheimer’s disease” (Life Science Alliance, 2024).
“And” between values parts separate entries of the source, which are not always exact repeats. Equal values may be shown once.

Tests used:
RIOK3 = molecular target: T1, RIOK3 (Homo sapiens, UniProt O14730); test: KINOMEscan competition binding, RIOK3; conditions: 10 µM compound
T1 construct: DNA label for qPCR read-out (T7 phage fusion or DNA tag); purchased Eurofins DiscoverX Corporation; host or cells: T7 phage in E. coli (BL21-derived) or HEK-293
T1 sequence (O14730 1-519): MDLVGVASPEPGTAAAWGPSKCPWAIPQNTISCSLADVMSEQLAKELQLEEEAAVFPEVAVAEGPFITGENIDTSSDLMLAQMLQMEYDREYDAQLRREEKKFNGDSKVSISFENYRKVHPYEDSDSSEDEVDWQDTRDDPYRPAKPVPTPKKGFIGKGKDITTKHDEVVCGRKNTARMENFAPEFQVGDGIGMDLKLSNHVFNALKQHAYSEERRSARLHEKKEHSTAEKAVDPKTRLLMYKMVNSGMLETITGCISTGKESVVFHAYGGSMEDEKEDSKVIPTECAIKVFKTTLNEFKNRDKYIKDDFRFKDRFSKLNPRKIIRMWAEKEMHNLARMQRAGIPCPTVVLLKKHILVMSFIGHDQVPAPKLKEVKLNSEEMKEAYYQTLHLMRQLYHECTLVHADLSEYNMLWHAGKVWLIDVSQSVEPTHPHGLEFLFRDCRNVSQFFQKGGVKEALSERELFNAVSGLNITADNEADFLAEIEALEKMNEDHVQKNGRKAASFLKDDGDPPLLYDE
Experimental: (§1) The KINOMEscan screening platform (Eurofins DiscoverX Corporation) was performed using active site-directed competition binding assay to quantitatively measure interactions between BK40143 and BK40197 and more than 450 human kinases and disease relevant mutant variants. […] Screening “hits” are identified by measuring the amount of kinase captured in test (BK40143 and BK40197) versus control samples by using a quantitative and ultra-sensitive qRT-PCR method that detects the associated DNA label. BK40143 and BK40197 were screened at 10 µM concentration, and results for primary screen binding interactions were reported as “% Ctrl” (POC), where lower numbers indicate stronger hits and calculated as follows: [test compound signal−positive control signal/negative control signal−positive control signal]×100
(§2) negative control = DMSO (100% Ctrl)
(§3) positive control = control compound (0% Ctrl)
(§4) Based on screening data from of profiled compounds, a proportional relationship between primary screening results and corresponding compound/target affinities can be described as binding constants (Kd values) for the indicated ranges of POC values with tighter binding (higher affinity) interactions associated with lower POC values and weaker binding (lower affinity) associated with higher POC values. Briefly, kinase-tagged T7 phage strains were grown in parallel in 24-well blocks in an E. coli host derived from the BL21 strain. E. coli were grown to log-phase and infected with T7 phage from a frozen stock (multiplicity of infection = 0.4) and incubated with shaking at 32°C until lysis (90–150 min). The lysates were centrifuged (6,000g) and filtered (0.2 μm) to remove cell debris. The remaining kinases were produced in HEK-293 cells and subsequently tagged with DNA for qRT-PCR detection. Streptavidin-coated magnetic beads were treated with biotinylated small molecule ligands for 30 min at RT to generate affinity resins for kinase assays. The liganded beads were blocked with excess biotin and washed with blocking buffer (1% BSA, 0.05% Tween 20, 1 mM DTT; SeaBlock [Pierce]) to remove unbound ligand and to reduce non-specific phage binding. Binding reactions were assembled by combining kinases, liganded affinity beads, and test compounds in 1x binding buffer (20% 0.17x PBS, 0.05% Tween 20, 6 mM DTT; SeaBlock). Test compounds were prepared as 100x stocks in 100% DMSO and directly diluted into the assay. All reactions were performed in polypropylene 384-well plates in a final volume of 0.02 ml. The assay plates were incubated at RT with shaking for 1 h and the affinity beads were washed with wash buffer (1x PBS, 0.05% Tween 20). […] The kinase concentration in the eluates was measured by qRT-PCR.

TgAPP mice = test: Morris water maze, TgAPP mice; type: in vivo, mouse; parameters: Platform Distance: unit not given beside the values; Total Distance / Quad Time / Quad Distance / Trial 1 D4 / Trial 1 D4 AVG: unit not given here
Experimental: The Morris water maze was performed using a water bath 6 ft in diameter and filled with roughly 1 ft of water. The maze was divided into four quadrants, each with a visual stimulus positioned on the wall of the maze in the center of the quadrant arc. A clear platform was placed in one quadrant just beneath the surface of the water. Mice were then placed in a random non-platform quadrant and allowed to swim freely for 60 s (time was stopped and recorded if the mouse found the platform) before being placed on the platform for 15 s and returned to their cage. This was repeated for each of the three quadrants each day for 4 d. On the 5th d, the platform was removed and mice were placed in the quadrant opposite of where the platform had been and allowed to swim freely for 1 min before being returned to their cage. Time spent in the correct quadrant, latency to the platform, number of platform entries, and number of quadrant entries were recorded.

MAP4K4 = molecular target: T2, MAP4K4 (Homo sapiens, UniProt O95819); test: KINOMEscan competition binding, MAP4K4; conditions: 10 µM compound
T2 construct: DNA label for qPCR read-out (T7 phage fusion or DNA tag); purchased Eurofins DiscoverX Corporation; host or cells: T7 phage in E. coli (BL21-derived) or HEK-293
Experimental: as §1, §2, §3, §4

PDGFRb = molecular target: T3, PDGFRb (Homo sapiens, UniProt P09619); test: KINOMEscan competition binding, PDGFRb; conditions: 10 µM compound
T3 construct: DNA label for qPCR read-out (T7 phage fusion or DNA tag); purchased Eurofins DiscoverX Corporation; host or cells: T7 phage in E. coli (BL21-derived) or HEK-293
Experimental: as §1, §2, §3, §4

FYN = molecular target: T4, FYN (Homo sapiens, UniProt P06241); test: KINOMEscan competition binding, FYN; conditions: 10 µM compound
T4 construct: DNA label for qPCR read-out (T7 phage fusion or DNA tag); purchased Eurofins DiscoverX Corporation; host or cells: T7 phage in E. coli (BL21-derived) or HEK-293
Experimental: as §1, §2, §3, §4

[1] = MWM Probe, single animal values, listed as 143
[2] = MWM Probe, single animal values, listed as 143, in s (unit assumed)
[3] = MWM training, Day 1, single animal values, listed as 143
[4] = MWM training, Day 2, single animal values, listed as 143
[5] = MWM training, Day 3, single animal values, listed as 143
[6] = MWM training, Day 4, single animal values, listed as 143

T3 sequence (P09619 33-1106): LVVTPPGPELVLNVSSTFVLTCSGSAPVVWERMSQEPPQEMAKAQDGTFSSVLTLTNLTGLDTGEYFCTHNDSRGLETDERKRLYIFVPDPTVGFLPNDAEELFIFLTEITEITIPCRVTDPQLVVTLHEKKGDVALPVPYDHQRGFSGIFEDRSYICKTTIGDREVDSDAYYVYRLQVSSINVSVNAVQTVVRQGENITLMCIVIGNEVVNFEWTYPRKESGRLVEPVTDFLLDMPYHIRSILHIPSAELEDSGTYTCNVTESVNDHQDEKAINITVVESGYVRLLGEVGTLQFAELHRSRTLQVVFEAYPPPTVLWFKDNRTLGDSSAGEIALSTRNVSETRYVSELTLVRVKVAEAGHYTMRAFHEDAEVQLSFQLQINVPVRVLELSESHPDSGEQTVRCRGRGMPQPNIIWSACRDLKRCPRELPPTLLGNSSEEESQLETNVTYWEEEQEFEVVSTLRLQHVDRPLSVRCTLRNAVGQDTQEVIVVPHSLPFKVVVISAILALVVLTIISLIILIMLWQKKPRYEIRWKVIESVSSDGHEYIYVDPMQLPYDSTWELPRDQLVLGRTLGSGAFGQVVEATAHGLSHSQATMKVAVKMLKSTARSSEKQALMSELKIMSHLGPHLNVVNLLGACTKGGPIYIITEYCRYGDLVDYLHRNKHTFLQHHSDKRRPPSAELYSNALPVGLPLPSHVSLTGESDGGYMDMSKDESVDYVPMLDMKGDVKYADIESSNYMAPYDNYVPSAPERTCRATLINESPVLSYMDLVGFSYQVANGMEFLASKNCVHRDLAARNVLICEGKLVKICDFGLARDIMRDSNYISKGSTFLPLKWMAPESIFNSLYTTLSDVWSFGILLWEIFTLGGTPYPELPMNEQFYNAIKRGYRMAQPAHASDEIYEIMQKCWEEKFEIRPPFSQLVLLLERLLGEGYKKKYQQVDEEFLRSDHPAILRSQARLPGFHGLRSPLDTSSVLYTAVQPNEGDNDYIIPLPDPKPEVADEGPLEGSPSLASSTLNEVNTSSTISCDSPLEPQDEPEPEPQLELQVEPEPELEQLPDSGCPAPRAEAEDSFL
T2 sequence (O95819 whole entry, the tested form may be a part): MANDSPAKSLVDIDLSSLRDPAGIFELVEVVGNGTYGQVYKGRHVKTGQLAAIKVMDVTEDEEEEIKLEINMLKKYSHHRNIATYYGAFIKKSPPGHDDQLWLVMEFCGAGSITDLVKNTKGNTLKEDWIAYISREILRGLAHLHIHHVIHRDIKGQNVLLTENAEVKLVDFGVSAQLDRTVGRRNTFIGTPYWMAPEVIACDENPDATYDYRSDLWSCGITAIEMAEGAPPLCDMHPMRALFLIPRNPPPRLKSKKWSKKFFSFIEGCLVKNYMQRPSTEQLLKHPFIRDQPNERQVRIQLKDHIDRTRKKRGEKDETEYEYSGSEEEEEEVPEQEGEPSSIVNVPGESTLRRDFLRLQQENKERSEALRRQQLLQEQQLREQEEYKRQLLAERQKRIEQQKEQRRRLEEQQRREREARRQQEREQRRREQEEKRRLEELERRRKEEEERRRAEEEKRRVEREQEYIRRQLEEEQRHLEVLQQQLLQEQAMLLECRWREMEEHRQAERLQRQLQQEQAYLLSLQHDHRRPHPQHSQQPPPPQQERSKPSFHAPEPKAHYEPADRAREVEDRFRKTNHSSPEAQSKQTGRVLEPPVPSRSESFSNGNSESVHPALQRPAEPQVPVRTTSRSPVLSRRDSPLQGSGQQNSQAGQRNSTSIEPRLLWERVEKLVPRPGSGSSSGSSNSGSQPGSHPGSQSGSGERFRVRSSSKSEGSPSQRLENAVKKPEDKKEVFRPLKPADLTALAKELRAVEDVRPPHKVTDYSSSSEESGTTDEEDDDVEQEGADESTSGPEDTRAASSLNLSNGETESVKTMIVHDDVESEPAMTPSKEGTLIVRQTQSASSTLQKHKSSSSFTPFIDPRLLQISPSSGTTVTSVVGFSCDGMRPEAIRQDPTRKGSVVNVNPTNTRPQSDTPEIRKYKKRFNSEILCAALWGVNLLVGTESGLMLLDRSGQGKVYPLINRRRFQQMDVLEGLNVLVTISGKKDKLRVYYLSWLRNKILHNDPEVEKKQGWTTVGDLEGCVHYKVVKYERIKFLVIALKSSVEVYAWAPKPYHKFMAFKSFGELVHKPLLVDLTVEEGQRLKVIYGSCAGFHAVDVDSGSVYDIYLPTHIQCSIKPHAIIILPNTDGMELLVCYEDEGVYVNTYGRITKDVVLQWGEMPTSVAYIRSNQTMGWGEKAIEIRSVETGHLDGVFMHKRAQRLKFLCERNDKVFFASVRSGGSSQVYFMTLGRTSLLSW
T4 sequence (P06241 whole entry, the tested form may be a part): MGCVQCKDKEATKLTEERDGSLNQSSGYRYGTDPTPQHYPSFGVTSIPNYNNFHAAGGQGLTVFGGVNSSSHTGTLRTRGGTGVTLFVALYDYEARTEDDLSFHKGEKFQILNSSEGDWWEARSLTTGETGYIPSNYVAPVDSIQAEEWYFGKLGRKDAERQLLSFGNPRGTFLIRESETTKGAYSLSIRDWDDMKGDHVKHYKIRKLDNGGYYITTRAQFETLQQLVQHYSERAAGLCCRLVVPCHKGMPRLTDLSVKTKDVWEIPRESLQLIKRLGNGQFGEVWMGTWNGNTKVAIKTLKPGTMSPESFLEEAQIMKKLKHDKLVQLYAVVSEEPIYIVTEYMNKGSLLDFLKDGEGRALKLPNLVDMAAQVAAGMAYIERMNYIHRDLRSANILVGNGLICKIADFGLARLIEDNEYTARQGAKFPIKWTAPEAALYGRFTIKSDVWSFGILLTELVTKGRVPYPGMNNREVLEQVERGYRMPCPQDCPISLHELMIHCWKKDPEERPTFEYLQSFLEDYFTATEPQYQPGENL

Cc1cccc(-c2cc3nccc(Nc4ccccc4)c3s2)c1 [BK40143]
inhibition at 10 µM (RIOK3): 80%
remaining binding at 10 µM (RIOK3; lower = stronger binding, read-out: RIOK3 %Ctrl @ 10000nM (POC)): 20%
Platform Distance (TgAPP mice; [1]): 0.467 and 0 and 0.449 and 0.195 and 0.184 and 0.331 and 0.254 and 0.89 and 0.328
Platform Entries (TgAPP mice; [1]): 2 and 0 and 1 and 3
Quad Distance (TgAPP mice; [1]): 5.043 and 5.446 and 3.201 and 3.934 and 3.492 and 4.145 and 2.65 and 6.181 and 3.964
Quad Distance/Total (TgAPP mice; [1]): 0.3982 and 0.4027 and 0.1894 and 0.2536 and 0.5166 and 0.3292 and 0.1787 and 0.6061 and 0.2552
Quad Entries (TgAPP mice; [1]): 10 and 8 and 9 and 3 and 6 and 13 and 7
Quad Time (TgAPP mice; [1]): 22.9 and 26.8 and 10.6 and 13.3 and 30.6 and 20.6 and 8.1 and 36.5 and 15.3
Total Distance (TgAPP mice; [1]): 12.663 and 13.525 and 16.899 and 15.514 and 6.759 and 12.592 and 14.83 and 10.786 and 10.198 and 15.531
Platform Latency (TgAPP mice; MWM Probe, single animal values, listed as 143, in s): 7 and 60 and 18.8 and 32.8 and 39.9 and 29.7 and 3.9 and 19 and 17.1
Platform Time (TgAPP mice; [2]): 1.2 and 0 and 1.4 and 0.6 and 0.8 and 5.3 and 1
Quad Latency (TgAPP mice; [2]): 3 and 9.6 and 9.7 and 11.8 and 11.9 and 1 and 2.6 and 4.4 and 3.3
Quad Time per Entry (TgAPP mice; [2]): 2.29 and 3.35 and 1.178 and 4.433 and 5.1 and 1.585 and 1.35 and 5.214 and 1.9125
Training Day 1 AVG (TgAPP mice; MWM training, Day 1, group average): 51.6747
Training Day 1, mean of the three trials per animal (TgAPP mice; MWM training, Day 1, per-animal mean, listed as 143): 53.4467 and 60 and 52.4667 and 29.4467 and 47.4833 and 58.2367 and 44.37 and 51.2967
Training Day 1, trial 1 (TgAPP mice; [3]): 40.34 and 60 and 56.02
Training Day 1, trial 2 (TgAPP mice; [3]): 60 and 37.4 and 16.7 and 22.45 and 54.71 and 56.59
Training Day 1, trial 4 (TgAPP mice; [3]): 60 and 11.64 and 20.5 and 33.89
Training Day 2 AVG (TgAPP mice; MWM training, Day 2, group average): 35.2243
Training Day 2, mean of the three trials per animal (TgAPP mice; MWM training, Day 2, per-animal mean, listed as 143): 48.7167 and 60 and 46.3833 and 23.8467 and 50.26 and 10.58 and 21.0467 and 41.7533 and 44.3033 and 5.353
Training Day 2, trial 1 (TgAPP mice; [4]): 60 and 20.69 and 7.13 and 14.22 and 47.78 and 22.96 and 5.56
Training Day 2, trial 2 (TgAPP mice; [4]): 60 and 19.15 and 23.07 and 4.53 and 36.28 and 34.46 and 5.16
Training Day 2, trial 4 (TgAPP mice; [4]): 26.15 and 60 and 27.78 and 30.78 and 20.08 and 12.64 and 43.02 and 49.95 and 5.34
Training Day 3 AVG (TgAPP mice; MWM training, Day 3, group average): 21.9237
Training Day 3, mean of the three trials per animal (TgAPP mice; MWM training, Day 3, per-animal mean, listed as 143): 16.49 and 19.77 and 22.4067 and 12.88 and 27.5233 and 6.497 and 51.49 and 20.0267 and 24.96 and 17.1933
Training Day 3, trial 1 (TgAPP mice; [5]): 5.91 and 7.09 and 10.32 and 15.21 and 29.09 and 11.01 and 60 and 23.94 and 21.27 and 31.09
Training Day 3, trial 2 (TgAPP mice; [5]): 2.72 and 9.21 and 18.46 and 13.59 and 19.08 and 3.47 and 34.47 and 8.82 and 17.41 and 5.46
Training Day 3, trial 4 (TgAPP mice; [5]): 40.84 and 43.01 and 38.44 and 9.84 and 34.4 and 5.01 and 60 and 27.32 and 36.2 and 15.03
Trial 1 D4 AVG (TgAPP mice; MWM training, Day 4, Trial 1, group average): 16.872
Training Day 4 AVG (TgAPP mice; MWM training, Day 4, group average): 25.5753
Training Day 4, mean of the three trials per animal (TgAPP mice; MWM training, Day 4, per-animal mean, listed as 143): 15.5667 and 10.07 and 25.41 and 53.8233 and 37.2967 and 27.5933 and 22.5667 and 22.4167 and 10.7767 and 30.2333
Training Day 4, trial 1 (TgAPP mice; [6]): 12.47 and 11.66 and 37.95 and 60 and 26.19 and 10.69 and 29.33 and 43.27 and 12.2 and 43.31
Training Day 4, trial 2 (TgAPP mice; [6]): 3.58 and 4.64 and 11.51 and 49.87 and 42.77 and 12.09 and 15.35 and 10.7 and 9.45 and 8.76
Training Day 4, trial 4 (TgAPP mice; [6]): 30.65 and 13.91 and 26.77 and 51.6 and 42.93 and 60 and 23.02 and 13.28 and 10.68 and 38.63
Morris water maze probe day (time in correct quadrant, quadrant entries, latency to platform) (TgAPP mice; TgAPP mice, 5 mg/kg IP, 6 wk, vs DMSO): showed improvement on measures of memory on the probe day of the water maze
Morris water maze training trials: time to locate the platform (TgAPP mice; TgAPP mice, BK40143 5 mg/kg, BK40197 45 mg/kg IP, 6 wk, vs DMSO): locate the platform significantly quicker on later training trials
inhibition at 10 µM (MAP4K4): 93.2%
remaining binding at 10 µM (MAP4K4; lower = stronger binding, read-out: MAP4K4 %Ctrl @ 10000nM (POC)): 6.8%
inhibition at 10 µM (PDGFRb): 99.9%
remaining binding at 10 µM (PDGFRb; lower = stronger binding, read-out: PDGFRb %Ctrl @ 10000nM (POC)): 0.1%
inhibition at 10 µM (FYN): 90%
remaining binding at 10 µM (FYN; lower = stronger binding, read-out: FYN %Ctrl @ 10000nM): 10%
